Values after ≈ are worked out from the molar mass of the structure shown. Active and inactive are the calls of the source. No cut-off for these calls is given here.
Key:
Staphylococcus aureus [1] = experiment: Antibacterial activity against Staphylococcus aureus Newman strain assessed as reduction in bacterial growth incubated for 16 to 18 hrs by two fold serial dilution method; format: functional; details: time 16-18 hrs
Staphylococcus aureus [2] = experiment: Antibacterial activity against multidrug-resistant Staphylococcus aureus NRS108 assessed as reduction in bacterial growth incubated for 16 to 18 hrs by two-fold serial dilution method; format: functional; details: time 16-18 hrs
Staphylococcus aureus [3] = experiment: Antibiofilm activity against Staphylococcus aureus Newman strain assessed as biofilm formation at 0.78 ug/ml after 24 hrs by crystal violet staining based assay relative to control; format: functional; details: dose 0.78 µg/ml
Staphylococcus aureus [4] = experiment: Antibacterial activity against multidrug-resistant Staphylococcus aureus NRS271 assessed as reduction in bacterial growth incubated for 16 to 18 hrs by two fold serial dilution method; format: functional; details: time 16-18 hrs
[5] = Cytotoxicity against human HEK293T cells assessed as reduction in cell viability measured after 48 hrs by MTT assay; format: cell-based, HEK-293T
Staphylococcus aureus [6] = experiment: Antibacterial activity against multidrug-resistant Staphylococcus aureus NRS1 assessed as reduction in bacterial growth incubated for 16 to 18 hrs by two fold serial dilution method; format: functional; details: time 16-18 hrs
Staphylococcus aureus [7] = experiment: Bactericidal activity against Staphylococcus aureus Newman strain assessed as reduction in bacterial colonies formation after 24 hrs by crystal violet staining based assay; format: functional, organism-based
Staphylococcus aureus [8] = experiment: Potency index, ratio of vancomycin MIC to test compound MIC for antibacterial activity against multidrug-resistant Staphylococcus aureus NRS108 assessed as reduction in bacterial growth incubated for 16 to 18 hrs by two-fold serial dilution method; format: functional; details: time 16-18 hrs
Staphylococcus aureus [9] = experiment: Potency index, ratio of vancomycin MIC to test compound MIC for antibacterial activity against mutidrug-resistant Staphylococcus aureus NRS100 assessed as reduction in bacterial growth incubated for 16 to 18 hrs by two fold serial dilution method; format: functional; details: time 16-18 hrs
Staphylococcus aureus [10] = experiment: Potency index, ratio of vancomycin MIC to test compound MIC for antibacterial activity against multidrug-resistant Staphylococcus aureus NRS1 assessed as reduction in bacterial growth incubated for 16 to 18 hrs by two fold serial dilution method; format: functional; details: time 16-18 hrs
Staphylococcus aureus [11] = experiment: Antibacterial activity against multidrug-resistant Staphylococcus aureus NRS70 assessed as reduction in bacterial growth incubated for 16 to 18 hrs by two fold serial dilution method; format: functional; details: time 16-18 hrs
Staphylococcus aureus [12] = experiment: Potency index, ratio of vancomycin MIC to test compound MIC for antibacterial activity against multidrug-resistant Staphylococcus aureus NRS70 assessed as reduction in bacterial growth incubated for 16 to 18 hrs by two fold serial dilution method; format: functional; details: time 16-18 hrs
Staphylococcus aureus [13] = experiment: Antibacterial activity against mutidrug-resistant Staphylococcus aureus NRS100 assessed as reduction in bacterial growth incubated for 16 to 18 hrs by two fold serial dilution method; format: functional; details: time 16-18 hrs
Staphylococcus aureus [14] = experiment: Potency index, ratio of vancomycin MIC to test compound MIC for antibacterial activity against multidrug-resistant Staphylococcus aureus NRS271 assessed as reduction in bacterial growth incubated for 16 to 18 hrs by two fold serial dilution method; format: functional; details: time 16-18 hrs

COc1cc(CNC(=O)c2ncc([N+](=O)[O-])n2C)ccc1OC(=O)c1ccc([N+](=O)[O-])s1
MIC (Staphylococcus aureus [1]): > 50 µg/mL

COc1cc(CNC(=O)c2ccc([N+](=O)[O-])s2)ccc1OC(=O)c1cccc([N+](=O)[O-])c1
MIC (Staphylococcus aureus [1]): > 50 µg/mL

O=C(NCc1ccc(-c2noc(-c3ccc([N+](=O)[O-])s3)n2)cc1)c1ccc([N+](=O)[O-])s1
MIC (Staphylococcus aureus [2]): 0.2 µg/mL (≈ 0.437 µM)
Activity (Staphylococcus aureus [3]): 80%
MIC (Staphylococcus aureus [1]): 0.78 µg/mL (≈ 1.71 µM)
MIC (Staphylococcus aureus [4]): 0.2 µg/mL (≈ 0.437 µM)
CC50 at 48 h [5]: 126 µg/mL (≈ 276 µM)
MIC (Staphylococcus aureus [6]): 0.39 µg/mL (≈ 0.853 µM)
Activity (Staphylococcus aureus [7]): Active
Ratio (Staphylococcus aureus [8]): 2
Ratio (Staphylococcus aureus [9]): 2
Ratio (Staphylococcus aureus [10]): 2
MIC (Staphylococcus aureus [11]): 0.2 µg/mL (≈ 0.437 µM)
Ratio (Staphylococcus aureus [12]): 2
MIC (Staphylococcus aureus [13]): 0.39 µg/mL (≈ 0.853 µM)
Ratio (Staphylococcus aureus [14]): 2

CN(Cc1ccc(N(C)C(=O)c2ccc([N+](=O)[O-])s2)cc1)C(=O)c1ccc([N+](=O)[O-])s1
MIC (Staphylococcus aureus [1]): 6.25 µg/mL (≈ 13.6 µM)

O=C(NCc1ccc(OC(=O)c2ccc([N+](=O)[O-])s2)cc1)c1ccc([N+](=O)[O-])s1
MIC (Staphylococcus aureus [2]): 3.13 µg/mL (≈ 7.22 µM)
MIC (Staphylococcus aureus [1]): 0.78 µg/mL (≈ 1.8 µM)
MIC (Staphylococcus aureus [4]): 1.56 µg/mL (≈ 3.6 µM)
CC50 at 48 h [5]: 251 µg/mL (≈ 579 µM)
MIC (Staphylococcus aureus [6]): 0.78 µg/mL (≈ 1.8 µM)
MIC (Staphylococcus aureus [11]): 0.78 µg/mL (≈ 1.8 µM)
MIC (Staphylococcus aureus [13]): 3.13 µg/mL (≈ 7.22 µM)

O=C(NCc1ccc(NC(=O)c2ccc([N+](=O)[O-])s2)cc1)c1ccc([N+](=O)[O-])s1
MIC (Staphylococcus aureus [1]): > 50 µg/mL

O=C(NCc1ccc(Oc2ccc([N+](=O)[O-])s2)cc1)c1ccc([N+](=O)[O-])s1
MIC (Staphylococcus aureus [1]): 3.13 µg/mL (≈ 7.72 µM)

COc1cc(CNC(=O)c2ccc([N+](=O)[O-])s2)ccc1OC(=O)c1cccs1
MIC (Staphylococcus aureus [1]): > 50 µg/mL

O=C(NCc1ccc(OC(=O)c2ccc([N+](=O)[O-])s2)c(Br)c1)c1ccc([N+](=O)[O-])s1
MIC (Staphylococcus aureus [1]): 6.25 µg/mL (≈ 12.2 µM)

O=C(Nc1ccc([N+](=O)[O-])s1)c1ccc(CNC(=O)c2ccc([N+](=O)[O-])s2)cc1
MIC (Staphylococcus aureus [1]): > 50 µg/mL

COc1cc(CNC(=O)CCCC/C=C/C(C)C)ccc1O [CAPSAICIN]
MIC (Staphylococcus aureus [1]): > 50 µg/mL

CN[C@H](CC(C)C)C(=O)N[C@H]1C(=O)N[C@@H](CC(N)=O)C(=O)N[C@H]2C(=O)N[C@H]3C(=O)N[C@H](C(=O)N[C@H](C(=O)O)c4cc(O)cc(O)c4-c4cc3ccc4O)[C@H](O)c3ccc(c(Cl)c3)Oc3cc2cc(c3O[C@@H]2O[C@H](CO)[C@@H](O)[C@H](O)[C@H]2O[C@H]2C[C@](C)(N)[C@H](O)[C@H](C)O2)Oc2ccc(cc2Cl)[C@H]1O [VANCOMYCIN]
MIC (Staphylococcus aureus [2]): 0.78 µg/mL (≈ 0.538 µM)
MIC (Staphylococcus aureus [1]): 0.78 µg/mL (≈ 0.538 µM)
MIC (Staphylococcus aureus [4]): 0.78 µg/mL (≈ 0.538 µM)
MIC (Staphylococcus aureus [6]): 1.56 µg/mL (≈ 1.08 µM)
Activity (Staphylococcus aureus [7]): inactive
MIC (Staphylococcus aureus [11]): 0.39 µg/mL (≈ 0.269 µM)
MIC (Staphylococcus aureus [13]): 0.78 µg/mL (≈ 0.538 µM)

COc1cc(CNC(=O)c2cccc([N+](=O)[O-])c2)ccc1OC(=O)c1ccc([N+](=O)[O-])s1
MIC (Staphylococcus aureus [1]): > 50 µg/mL

COc1cc(CNC(=O)c2ccc([N+](=O)[O-])o2)ccc1OC(=O)c1ccc([N+](=O)[O-])s1
MIC (Staphylococcus aureus [1]): 3.13 µg/mL (≈ 7 µM)

COc1cc(CNC(=O)c2ccc([N+](=O)[O-])o2)ccc1OC(=O)c1ccc([N+](=O)[O-])o1
MIC (Staphylococcus aureus [1]): 3.13 µg/mL (≈ 7.26 µM)

COc1cc(CNC(=O)c2ccc([N+](=O)[O-])s2)ccc1OC(=O)c1ccc([N+](=O)[O-])o1
MIC (Staphylococcus aureus [1]): 6.25 µg/mL (≈ 14 µM)

COc1cc(CNC(=O)c2ccc([N+](=O)[O-])s2)ccc1OC(=O)c1ncc([N+](=O)[O-])n1C
MIC (Staphylococcus aureus [1]): > 50 µg/mL

COc1cc(CNC(=O)c2ccc([N+](=O)[O-])s2)ccc1OC(=O)c1ccc([N+](=O)[O-])s1
MIC (Staphylococcus aureus [2]): 1.56 µg/mL (≈ 3.37 µM)
MIC (Staphylococcus aureus [1]): 1.56 µg/mL (≈ 3.37 µM)
MIC (Staphylococcus aureus [4]): 0.78 µg/mL (≈ 1.68 µM)
CC50 at 48 h [5]: 61 µg/mL (≈ 132 µM)
MIC (Staphylococcus aureus [6]): 0.78 µg/mL (≈ 1.68 µM)
MIC (Staphylococcus aureus [11]): 0.78 µg/mL (≈ 1.68 µM)
MIC (Staphylococcus aureus [13]): 0.78 µg/mL (≈ 1.68 µM)

Cc1cc(CNC(=O)c2ccc([N+](=O)[O-])s2)ccc1OC(=O)c1ccc([N+](=O)[O-])s1
MIC (Staphylococcus aureus [2]): 1.56 µg/mL (≈ 3.49 µM)
MIC (Staphylococcus aureus [1]): 0.39 µg/mL (≈ 0.872 µM)
MIC (Staphylococcus aureus [4]): 0.39 µg/mL (≈ 0.872 µM)
CC50 at 48 h [5]: 168 µg/mL (≈ 375 µM)
MIC (Staphylococcus aureus [6]): 0.39 µg/mL (≈ 0.872 µM)
MIC (Staphylococcus aureus [11]): 0.39 µg/mL (≈ 0.872 µM)
MIC (Staphylococcus aureus [13]): 0.39 µg/mL (≈ 0.872 µM)

COc1cc(CNC(=O)/C=C/c2ccc([N+](=O)[O-])s2)ccc1OC(=O)c1ccc([N+](=O)[O-])s1
MIC (Staphylococcus aureus [1]): > 50 µg/mL

COc1cc(CNC(=O)c2ccc([N+](=O)[O-])s2)cc(OC)c1OC(=O)c1ccc([N+](=O)[O-])s1
MIC (Staphylococcus aureus [1]): 3.13 µg/mL (≈ 6.34 µM)

COc1cc(CNC(=O)c2cccs2)ccc1OC(=O)c1ccc([N+](=O)[O-])s1
MIC (Staphylococcus aureus [1]): > 50 µg/mL

O=C(NCc1ccc(OC(=O)c2ccc([N+](=O)[O-])s2)c(C(F)(F)F)c1)c1ccc([N+](=O)[O-])s1
MIC (Staphylococcus aureus [1]): 3.13 µg/mL (≈ 6.24 µM)

COc1cc(OC(=O)c2ccc([N+](=O)[O-])s2)ccc1CNC(=O)c1ccc([N+](=O)[O-])s1
MIC (Staphylococcus aureus [2]): 1.56 µg/mL (≈ 3.37 µM)
MIC (Staphylococcus aureus [1]): 1.56 µg/mL (≈ 3.37 µM)
MIC (Staphylococcus aureus [4]): 0.78 µg/mL (≈ 1.68 µM)
MIC (Staphylococcus aureus [6]): 0.78 µg/mL (≈ 1.68 µM)
MIC (Staphylococcus aureus [11]): 0.78 µg/mL (≈ 1.68 µM)
MIC (Staphylococcus aureus [13]): 0.78 µg/mL (≈ 1.68 µM)

COc1cc(CNC(=O)c2ccc([N+](=O)[O-])s2)ccc1O
MIC (Staphylococcus aureus [1]): > 50 µg/mL

O=C(NCc1ccc(OC(=O)c2ccc([N+](=O)[O-])s2)c(Cl)c1)c1ccc([N+](=O)[O-])s1
MIC (Staphylococcus aureus [2]): 1.56 µg/mL (≈ 3.33 µM)
MIC (Staphylococcus aureus [1]): 0.78 µg/mL (≈ 1.67 µM)
MIC (Staphylococcus aureus [4]): 1.56 µg/mL (≈ 3.33 µM)
MIC (Staphylococcus aureus [6]): 0.78 µg/mL (≈ 1.67 µM)
MIC (Staphylococcus aureus [11]): 0.39 µg/mL (≈ 0.834 µM)
MIC (Staphylococcus aureus [13]): 3.13 µg/mL (≈ 6.69 µM)

O=C(NCc1ccc(OC(=O)c2ccc([N+](=O)[O-])s2)c(F)c1)c1ccc([N+](=O)[O-])s1
MIC (Staphylococcus aureus [1]): 3.13 µg/mL (≈ 6.93 µM)

O=C(NCc1ccc(OC(=O)c2ccc([N+](=O)[O-])s2)c([N+](=O)[O-])c1)c1ccc([N+](=O)[O-])s1
MIC (Staphylococcus aureus [1]): 6.25 µg/mL (≈ 13.1 µM)

NC[C@H]1O[C@H](O[C@H]2[C@H](O)[C@@H](O[C@H]3O[C@H](CO)[C@@H](O)[C@H](N)[C@H]3O)[C@H](N)C[C@@H]2N)[C@H](O)[C@@H](O)[C@@H]1O [KANAMYCIN]
MIC (Staphylococcus aureus [2]): > 50 µg/mL
MIC (Staphylococcus aureus [1]): 3.13 µg/mL (≈ 6.46 µM)
MIC (Staphylococcus aureus [4]): 3.13 µg/mL (≈ 6.46 µM)
MIC (Staphylococcus aureus [6]): > 50 µg/mL
MIC (Staphylococcus aureus [11]): > 50 µg/mL
MIC (Staphylococcus aureus [13]): 1.56 µg/mL (≈ 3.22 µM)

COc1cc(CNC(=O)c2ccc([N+](=O)[O-])s2)ccc1OC(=O)/C=C/c1ccc([N+](=O)[O-])s1
MIC (Staphylococcus aureus [1]): > 50 µg/mL

CCCCCCCCCC(=O)NCc1ccc(OC(=O)c2ccc([N+](=O)[O-])s2)c(OC)c1
MIC (Staphylococcus aureus [1]): > 50 µg/mL
